Measurements: patent US20230279246A1, “MOLECULE-CONTAINING SURFACES AND METHODS OF PREPARATION THEREOF” (University of Durham, priority 2020, published 2023)

Tested on: Gram-negative Escherichia coli BW25113
Assay: Antibacterial testing of coated substrates, CFU plate counting
Conditions: relative to untreated substrate; for Bacteria Loss/Log10 Reduction E. coli (Gram-negative): coated PET film, 4 h at 30 °C, mean ± standard deviation; for Log10 Reduction E. coli: plasma poly(4-vinylaniline) series, title: polypropylene film, text: PET substrates, average ± standard deviation
Description: The prepared substrates with their respective coatings were subsequently tested for their antibacterial qualities against representative species of Gram-negative and Gram-positive bacteria. Gram-negative Escherichia coli BW25113 (CGSC 7636; rrnB3 ΔlacZ4787 hsdR514 Δ(araBAD)567 Δ(rhaBAD)568 rph-1) and Gram-positive Staphylococcus aureus (FDA209P, an MSSA strain; ATCC 6538P) bacteria cultures were prepared using autoclaved (Autoclave Vario 1528, Dixons Ltd.) Luria-Bertani broth media (LB; L3022, Sigma-Aldrich Ltd., 2% w/v in Milli-Q® grade water). A 5 ml bacterial culture was grown from a single colony for 16 h at 37° C., and then 50 μL used to inoculate a sterile polystyrene cuvette (Catalogue No. 67.742, Sarstedt AG) containing 1 mL of LB Broth. The cuvette was covered with Parafilm (Cole-Parmer Ltd.) and then placed inside a shaking incubator (model Stuart Orbital Incubator S1500, Cole-Parmer Ltd.) set at 37° C. and 120 rpm. An optical density OD600nm=0.4 was verified using a UV-Vis spectrophotometer (model Jenway 6300, Cole-Parmer Ltd.) to obtain bacteria at the mid-log phase of growth.
Uncoated control samples were washed in absolute ethanol for 15 minutes and then dried under vacuum in order to make sure they were sterile and clean. Sterile microtubes (1.5 mL, Sarstedt AG) were loaded with the untreated, or coated substrates. Next, 100 μL of the prepared bacterial culture was placed onto each substrate (so that the microorganisms could interact with one side of the surface), and left to incubate (model Bacterial Incubator 250, LMS Ltd.) for 4 hours at 30° C. Next, 900 μL of autoclaved Luria-Bertani broth media was pipetted into each microtube and vortexed (model Vortex-Genie 2, Scientific Industries Inc.) in order to recover the bacteria as a 10-fold dilution (10^−1). Further ten-fold serial dilutions were undertaken to provide 10^−2, 10^−3, 10^−4, 10^−5 and 10^−6 samples. Colony-forming unit (CFU) plate counting was performed by placing 10 μL drops from each diluted sample onto autoclaved Luria-Bertani Agar solid plates (EZMix™ powder, dust free, fast dissolving fermentation medium, L7533, Sigma-Aldrich Ltd.) and incubated (model Bacterial Incubator 250, LMS Ltd.) for 16 hours at 30° C. The number of colonies visible at each dilution were then counted. All tests were performed in triplicate.
Gram-negative Escherichia coli BW25113 (CGSC 7636; rrnB3 ΔlacZ4787 hsdR514 Δ(araBAD)567 Δ(rhaBAD)568 rph-1) and Gram-positive Staphylococcus aureus (FDA209P, an MSSA strain; ATCC 6538P) bacteria cultures were prepared using autoclaved (Autoclave Vario 1528, Dixons Ltd.) Luria-Bertani broth media (LB; L3022, Sigma-Aldrich Ltd., 2% w/v in grade water). A 5 ml bacterial culture was grown from a single colony for 16 h at 37° C., and then 50 μL used to inoculate a sterile polystyrene cuvette (Part No. 67.742, Sarstedt AG) containing 1 mL of LB Broth. The cuvette was covered with Parafilm (Cole-Parmer Ltd.) and then placed inside a shaking incubator (model Stuart Orbital Incubator S1500, Cole-Parmer Ltd.) set at 37° C. and 120 rpm to allow the bacteria to grow until an optical density OD600nm=0.4 was measured using a UV-Vis spectrophotometer (model Jenway 6300, Cole-Parmer Ltd.) which corresponded to the mid-log phase growth of bacteria.
Antibacterial testing was performed within 24 h of fabricating the coatings. Uncoated control samples were cleaned and sterilized by washing in absolute ethanol for 15 min and drying under vacuum. Each uncoated or coated substrate piece was placed aseptically inside a sterile microtube (1.5 mL, Sarstedt AG) so that the microorganisms could interact with one side of the surface. Next, 100 μL of the prepared bacterial culture was pipetted onto each substrate. In practice, the porous substrates absorbed the liquid so that the entire 15 mm×15 mm area of the samples was permeated by the bacterial suspension.

| Compound | Bacteria Loss/Log10 Reduction E. coli (Gram-negative) [Log10 Reduction] | Bacteria Loss/Log10 Reduction E. coli (Gram-negative) (listed as cinnamaldehyde) | Log10 Reduction E. coli (listed as Cinnamaldehyde-only) [Log10 Reduction] | Log10 Reduction E. coli (listed as cinnamaldehyde-only) | Bacteria Loss/Log10 Reduction E. coli (Gram-negative) (listed as Tannic acid-only) |
| --- | --- | --- | --- | --- | --- |
| O=C/C=C/c1ccccc1 [Cinnamaldehyde, trans-cinnamaldehyde] | 0.12 ± 0.07 | very small antibacterial effect | 0.12 ± 0.07 | very small effect |  |
| O=C(OC[C@H]1O[C@@H](OC(=O)c2cc(O)c(O)c(OC(=O)c3cc(O)c(O)c(O)c3)c2)[C@H](OC(=O)c2cc(O)c(O)c(OC(=O)c3cc(O)c(O)c(O)c3)c2)[C@@H](OC(=O)c2cc(O)c(O)c(OC(=O)c3cc(O)c(O)c(O)c3)c2)[C@@H]1OC(=O)c1cc(O)c(O)c(OC(=O)c2cc(O)c(O)c(O)c2)c1)c1cc(O)c(O)c(OC(=O)c2cc(O)c(O)c(O)c2)c1 [Tannic Acid, tannic acid] | 0.00 |  |  |  | no antibacterial activity |
